Assay results as given in patent US20160193202A1, “THERAPEUTIC TREATMENT FOR DRUG POISONING AND ADDICTION” (ADISPELL, INC., priority 2013, published 2016).
“And” between values parts separate entries of the source, which are not always exact repeats. Equal values may be shown once. “Also recorded” adds a separate entry of the source. Read-outs that look alike come from different tables or passages of the source.

What was measured:
[1] = target: nicotinic acetylcholine receptor (Mus musculus, UniProt P02716+P04756+P04760+P09690); settings: cited from earlier work
Chain of nicotinic acetylcholine receptor (P04756 21-457): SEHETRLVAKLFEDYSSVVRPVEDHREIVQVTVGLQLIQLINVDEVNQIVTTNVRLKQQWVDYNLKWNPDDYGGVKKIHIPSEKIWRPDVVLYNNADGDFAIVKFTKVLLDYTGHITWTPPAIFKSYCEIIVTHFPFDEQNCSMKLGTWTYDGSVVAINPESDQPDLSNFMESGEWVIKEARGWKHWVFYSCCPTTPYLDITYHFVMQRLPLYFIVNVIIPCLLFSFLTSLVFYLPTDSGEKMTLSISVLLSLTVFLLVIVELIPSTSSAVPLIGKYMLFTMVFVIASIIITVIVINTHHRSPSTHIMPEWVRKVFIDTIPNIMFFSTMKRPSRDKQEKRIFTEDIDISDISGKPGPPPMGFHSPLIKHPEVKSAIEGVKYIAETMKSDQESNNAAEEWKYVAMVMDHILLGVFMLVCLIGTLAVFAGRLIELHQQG
Chain of nicotinic acetylcholine receptor (P09690 24-501): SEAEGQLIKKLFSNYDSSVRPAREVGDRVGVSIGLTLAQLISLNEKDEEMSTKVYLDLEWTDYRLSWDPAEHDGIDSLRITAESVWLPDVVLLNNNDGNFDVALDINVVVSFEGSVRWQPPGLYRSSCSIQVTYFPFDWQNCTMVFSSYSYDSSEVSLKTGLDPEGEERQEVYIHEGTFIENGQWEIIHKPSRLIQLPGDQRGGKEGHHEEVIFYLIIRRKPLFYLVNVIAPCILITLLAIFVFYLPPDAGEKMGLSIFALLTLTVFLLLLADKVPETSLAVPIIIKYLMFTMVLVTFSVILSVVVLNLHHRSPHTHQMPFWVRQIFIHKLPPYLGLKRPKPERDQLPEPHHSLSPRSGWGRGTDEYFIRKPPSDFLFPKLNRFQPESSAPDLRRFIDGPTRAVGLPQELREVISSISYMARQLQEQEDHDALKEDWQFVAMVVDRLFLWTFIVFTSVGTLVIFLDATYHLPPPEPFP
Chain of nicotinic acetylcholine receptor (P04760 23-519): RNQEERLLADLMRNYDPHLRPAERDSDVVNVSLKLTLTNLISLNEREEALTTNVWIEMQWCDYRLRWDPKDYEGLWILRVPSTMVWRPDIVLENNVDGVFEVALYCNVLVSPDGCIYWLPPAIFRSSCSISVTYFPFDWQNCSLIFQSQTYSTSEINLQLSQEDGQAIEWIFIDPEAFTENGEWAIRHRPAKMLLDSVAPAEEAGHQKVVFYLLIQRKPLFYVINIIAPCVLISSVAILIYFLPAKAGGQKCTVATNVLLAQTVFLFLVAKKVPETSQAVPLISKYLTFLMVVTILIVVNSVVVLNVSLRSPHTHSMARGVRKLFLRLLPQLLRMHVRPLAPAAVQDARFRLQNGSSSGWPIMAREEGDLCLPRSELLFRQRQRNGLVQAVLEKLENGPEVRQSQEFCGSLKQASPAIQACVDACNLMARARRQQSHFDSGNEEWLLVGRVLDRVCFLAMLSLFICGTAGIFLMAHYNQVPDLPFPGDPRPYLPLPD
Chain of nicotinic acetylcholine receptor (P02716 25-520): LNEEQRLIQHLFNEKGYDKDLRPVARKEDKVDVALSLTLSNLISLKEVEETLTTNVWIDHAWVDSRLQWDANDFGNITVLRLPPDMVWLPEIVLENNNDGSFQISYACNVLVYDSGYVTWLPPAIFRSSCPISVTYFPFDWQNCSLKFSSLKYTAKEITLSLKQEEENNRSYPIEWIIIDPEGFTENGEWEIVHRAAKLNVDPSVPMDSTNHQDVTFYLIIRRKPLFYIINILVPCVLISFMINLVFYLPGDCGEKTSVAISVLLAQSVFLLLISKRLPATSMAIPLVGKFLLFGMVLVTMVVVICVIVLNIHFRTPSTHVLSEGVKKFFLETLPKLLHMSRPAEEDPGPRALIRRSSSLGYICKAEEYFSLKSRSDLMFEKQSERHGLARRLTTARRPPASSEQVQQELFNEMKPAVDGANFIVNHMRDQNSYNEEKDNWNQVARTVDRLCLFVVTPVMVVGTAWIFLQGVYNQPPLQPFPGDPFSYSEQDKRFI

rats = assay: Morris water maze probe trial with scopolamine; assay type: in vivo, rat; settings: for Morris water maze individual swimming trace, finding of target area: individual rat, FIGS. 1A-1C
Description: The Morris water maze for rats (San Diego Instruments) uses a 70 inch diameter swimming tank, in which rats, one at a time, are placed to determine the swimming time taken to find a platform, which can be visible or submerged, and is placed randomly in the tank, with its position locatable by means of navigation in response to visible clues. A video camera is positioned to record the swimming path of the rat, and computer analysis of the path permits accurate assessment of elapsed time, distance traveled, and route taken to achieve particular objectives. This technique is used to study memory, learning and spatial working, in healthy, diseased, and drug-affected states. The test can be applied acutely (probe test) or can involve considerable training and repeat measure experimental designs. The term “latency” in the context of the Morris water maze is used to depict the relation of time taken to escape from the water (Morris R., “Development of a Water-Maze Procedure for Studying Spatial Learning in The Rat,” Journal of Neuroscience Methods 11:47-60 (1984) and Wongwitdecha et al., “Effects of Social Isolation Rearing on Learning in the Morris Water Maze,” Brain Research 715:119-124 (1996), both of which are hereby incorporated by reference in their entirety).
This was a single dose probe trial in normal healthy rats with the objective of determining whether: (a) there is an effect in raising cognitive efficiency in unimpaired rats and (b) impairment caused by scopolamine can be reversed by EME.
FIGS. 1A-1C show three individual swimming traces for rats treated with a control vehicle (FIG. 1A), a combined dose of ecgonine methyl ester (EME) (10 mg/kg) and scopolamine (1 mg/kg) (FIG. 1B), and a single dose of scopolamine (1 mg/kg) (FIG. 1C). The target area was in the “south west” or bottom left quadrant of the bath. […] This observation was significant (p<0.05).
The group results in this probe trial with vehicle (VEH), EME alone, scopolamine alone, and EME plus scopolamine in the acute dose Morris water maze experiment are shown in FIG. 2. In particular, column 1 depicts the probe test results for the vehicle, column 2 depicts probe test results for EME alone, column 3 depicts probe test results for scopolamine alone, and column 4 depicts probe test results for EME in combination with scopolamine.

mice = mice pretreated with EME 50 mg/kg, 126 mg/kg cocaine five minutes later; survivors/animals; cited from earlier work
[2] = Brain and plasma concentrations after 10 mg/kg intraperitoneal doses (GC-MS)
Description: (§1) Plasma and Brain Concentrations after Intraperitoneal Doses—Twenty young adult rats in groups of four were given intraperitoneal doses of 10 mg/kg, and killed and dissected at various times after dosing. Brain and plasma concentrations were assessed by GC-MS. Samples were pre-dose, and at 1, 2, 4 and 24 hours after the dose. Each point is the mean value from four rats.

[3] = target: T1, BC3H1 nicotinic acetylcholine receptor (Mus musculus, UniProt P02716+P04756+P04760+P09690); settings: 100 μM carbamoylcholine, cited from earlier work
T1 construct: endogenous in cells; host or cells: BC3H1 cells
T1 sequence (P04756 21-457): as the sequence (P04756 21-457) above
T1 sequence (P09690 24-501): as the sequence (P09690 24-501) above
T1 sequence (P04760 23-519): as the sequence (P04760 23-519) above
T1 sequence (P02716 25-520): as the sequence (P02716 25-520) above

in vivo = settings: rat, brain and plasma, ip, 10 mg/kg
Description: as §1

[4] = range where effects of multiple Class 1 compounds were alleviated, read-out: KD(Alv)
[5] = read-out: KD(Alv), range where effects of multiple Class 1 compounds were alleviated

For COC(=O)C1C(OC(C)=O)CC2CCC1N2C (stereo not shown) [3.Acetoxy EME, 3-Acetoxy EME], the Kd [1, 4] is given as 3.3 µM.
In the case of COC(=O)C1C(O)CC2CCC1N2C (stereo not shown) [EME, ecgonine methyl ester], the Kd [1, 5] is given as 0.8 to 12.7 µM, the “Morris water maze probe test, group result, reversal of scopolamine impairment” value (rats; EME (10 mg/kg) combined with scopolamine (1 mg/kg), single dose, group size 10) is given as “reversed the scopolamine effect; also recorded: restore function impaired by scopolamine” and the “Morris water maze probe test, group result versus controls” value (rats; EME alone, single dose, normal healthy rats, group size 10) is given as “no effect on its own”. The “Morris water maze individual swimming trace, finding of target area” value (rats) was “found the target area”, the Survival (mice) was “increased survival and 9/40” and the “Predicted half-life in humans” value ([2]; predicted from persistence in rats) was 6 to 8 h. For the same compound, the “Absorption after the IP dose” value ([2]; rat, 10 mg/kg IP) was “rapid absorption”, the “Decay of plasma concentrations” value ([2]; rat, 10 mg/kg IP) was “biexponential decay” and the “Time of maximal brain concentration” value ([2]; rat, 10 mg/kg IP) was 2 h. The “Time of peak plasma concentration” value ([2]; rat, 10 mg/kg IP) was “already peaked at one hour”, the Brain penetration ([2]; rat, in vivo) was “readily penetrates the brain” and the “Alleviation of cocaine inhibition of the nicotinic acetylcholine receptor” value ([3]; cocaine present (200 μM for EME)) was “Alleviation of cocaine inhibition”. It also gave a Kp (in vivo) of about 10.
For CN1C2CCC1C(C(=O)O)C(O)C2 (stereo not shown) [Ecgonine, ecgonine], the Kd [1, 5] is given as 3.5 µM.
For COC(=O)C1=CC(=O)C2CC(S(=O)(=O)c3ccccc3)C1N2C (stereo not shown) [RCS-111-140A], the Kd [1, 4] is listed as 0.8 to 8.2 µM and the Kd ([1]; unit inferred, read-out: KD(alv)) is listed as 0.8 µM.
For CN1C2CC(S(=O)(=O)c3ccccc3)C1C(C(=O)O)=CC2=O (stereo not shown) [RCS-111-143], the Kd [1, 4] is listed as 3.3 µM.
In the case of COC(=O)C1=C(c2ccccc2)C(=O)C2CC(S(=O)(=O)c3ccccc3)C1N2C (stereo not shown) [RCS-111-202A], the Kd [1, 4] is listed as 2.8 µM.
In the case of CN1C2CC(S(=O)(=O)c3ccccc3)C1C(C(=O)O)=C(c1ccccc1)C2=O (stereo not shown) [RCS-111-218], the Kd [1, 4] is given as 5 µM.
In the case of CN1C2CCC1C(C(=O)O)C(c1ccc(Cl)cc1)C2 (stereo not shown) [RTI Compound], the Kd [1, 5] is listed as 0.7 to 14 µM and the Kd ([1]; read-out: KD(alv), unit inferred) is listed as 0.7 µM.
In the case of CN1[C@@H]2C[C@@H](OC(=O)[C@H](CO)c3ccccc3)C[C@H]1[C@@H]1O[C@@H]12 [scopolamine, reference compound], the “Morris water maze individual swimming trace, finding of target area” value (rats) is reported as “showed no preference” and the “Morris water maze probe test, group result” value (rats; scopolamine alone (1 mg/kg), group size 10, p<0.05) is reported as “showed the impairment”.
In the case of “aptamer 3: Class 2 RNA aptamer, SEQ ID NO:56 (AGUAGGAAUACCCCCAUCCAAAGCUCGCUAGGCUGAACAC; RNA, backbone not given here)”, the “Effect on whole-cell current generated by carbamoylcholine” value ([3]; 5 μM aptamer, −60 mV, 22° C., pH 7.4, no inhibitor) is listed as “no effect”.
